Results from PMC8328489, “Automated Synthesis and Initial Evaluation of (4′-Amino-5′,8′-difluoro-1′H-spiro[piperidine-4,2′-quinazolin]-1-yl)(4-[^18F]fluorophenyl)methanone for PET/MR Imaging of Inducible Nitric Oxide Synthase” (Molecular Imaging, 2021).
Where two headings read alike, the source gives them in different places.

Key:
[1] = Log P measurement (1-octanol/phosphate buffer, UV); format: physicochemical; settings: 1-octanol / 0.02 M phosphate buffer; 1-octanol / phosphate buffer pH 7.4
Method: The partition coefficient of FBAT, determined between 1-octanol and 0.02 M phosphate buffer at pH 7.4, was measured by UV spectrophotometer (SPARK 10 M from Tecan) at wavelength 230 nm.

[2] = dog, 10 min postinjection; cited from earlier work
[3] = tested on: iNOS; settings: cited from earlier work
[4] = tested on: nNOS; parameters: method as in PMID 11327580; settings: cited from earlier work
[5] = tested on: eNOS; settings: cited from earlier work; for selectivity vs. eNOS: iNOS vs. eNOS
[6] = within 5 min postinjection; cited from earlier work
[7] = tested on: murine microglial BV2 cells; assay: LPS-dependent nitric oxide (NO) production, Griess assay; format: cell-based; settings: pretreatment 0.1 or 1 mM
Method: Briefly, murine microglial BV2 cells were cultured in high-glucose Dulbecco's modified Eagle's medium (DMEM) supplemented with 100 U/mL penicillin. The cells were cultured in 6-well plates (~50,000 cells/well) in a humidified 5% CO2 atmosphere at 37°C until ∼60–70% confluent, washed three times with fresh media, and cultured in complete media containing LPS (0, 50, 100, or 200 ng/mL, Sigma-Aldrich, St. Louis, MO, USA). At the indicated time points, the culture media were harvested.
To assay NO, 100 μL aliquots of culture media were added to 100 μL of Griess reagent (1% sulfanilamide in 5% H3PO4) in 96-well plates, incubated at room temperature for 10 min; then, 50 μL NED Griess reagent (0.1% N-naphthyl-ethylenediamine dihydrochloride) was added and incubated for 10 min, and the absorbance values were determined at 540 nm using a TECAN Sunrise ELISA Reader. Fresh culture medium was used as a blank. The concentrations of nitrite were determined by comparison with a standard curve of sodium nitrite prepared in cell culture media.
(§1) iNOS is the enzyme responsible for NO generation in BV2 cells; therefore, accumulation of [^18F]FBAT in BV2 cells before or after iNOS inhibitor versus NO production was also assessed.

[8] = tested on: iNOS; assay: Immunohistochemistry of iNOS in brain sections; format: in vivo, C57BL/6 mice; settings: pretreatment, vs LPS 3 h group
Method: After imaging, mice were terminally anesthetized with ketamine/xylazine and perfused with 4% paraformaldehyde, and the brains were dissected, postfixed overnight in 4% paraformaldehyde at 4°C. Five-micrometer thick paraffin-embedded brain tissues were deparaffinized, rehydrated, microwaved in 10 mM citrate buffer (pH 6.0) at 100°C for 10 min for antigen retrieval, washed, incubated in 3% […] for 15 min at RT to inhibit endogenous peroxidases, and blocked in blocking solution for 60 min at RT.
Sections were incubated with primary NOS2/NOS1 antibodies (Cat# MAB 1627; Abnova, Walnut, CA, USA) diluted 1 : 100 overnight at 4°C, developed using the Vectastain Elite kit (Vector Laboratories, Burlingame, CA) following the manufacturer's instructions, and examined using an AxioScope A1 microscope (Zeiss, Oberkochen, Germany) equipped with an Axiocam 512 color digital camera (Zeiss).
The immunohistochemistry images were converted into 8-bit grayscale images in the range. Immunostaining intensity was manually measured in the region of interest (ROI). The median (25%, 75% interquartile range) percentage score for each group (control, LPS 3 h, and LPS 24 h) was calculated as the sum of the individual number of slides within the group.

[9] = tested on: murine microglial BV2 cells; assay: In vitro [^18F]FBAT uptake assay; format: cell-based; settings: pretreatment 0.1 mM or 1 mM for 1 h
Method: BV2 cells were cultured as described above, washed three times with fresh medium, pretreated with a selective iNOS inhibitor, aminoguanidine (AMG), (0, 1, or 0.1 mM) for 1 h, and then treated with cell culture media containing LPS and the inhibitor. At the indicated time points, the cells were washed thrice with fresh cell culture media, then incubated in fresh cell culture media continuing the radiotracer [^18F]FBAT at 0.37 MBq/mL for 15, 30, or 60 min, harvested by gentle scraping, and pelleted by centrifugation at 1500 g for 2 min. The weight of the cell pellet and 0.1 mL of the radioactive supernatant was determined. A Packard 5500 gamma counter (PerkinElmer, Billerica, MA, USA) was used to quantify radioactivity as cpm/g cells or cpm/mL media, respectively. Cell-to-medium radioactivity concentration ratios were calculated and plotted over time to evaluate the kinetics of accumulation of the radiotracer.
as §1

[10] = target: T1, iNOS (Mus musculus, UniProt P29477); assay: In vivo brain PET/MR imaging of LPS-induced iNOS expression (SUV, SUR, AUC) incl. aminoguanidine blocking; parameters: species or system C57BL/6 mice; settings: 50 mg/kg i.p. pretreatment
T1 construct: tracer to detect iNOS expression in mice injected with lipopolysaccharide (LPS) to induce brain inflammation; from tissue; host or cells: brain of living C57BL/6 mice (LPS-induced); fixed brain sections for IHC
Method: For the imaging experiments, twelve C57BL/6 mice were injected i.p. with 0.9% NaCl, eighteen mice were injected i.p. with 0.1 mL of LPS in saline (5 mg/kg), and six mice were injected i.p. with aminoguanidine (Sigma-Aldrich) 30 min prior to 5 mg/kg LPS. In vivo imaging was performed 3 h or 24 h after injection of LPS; then, the mice were immediately humanely euthanized and the brains were removed for immunostaining.
Mice (n = 30) were anesthetized with 2% isoflurane (in oxygen) and injected with [^18F]FBAT (11.1 MBq; 0.3 mCi) via the tail vein. Dynamic PET images were obtained in fully three-dimensional list mode for 30 min using a small animal SuperArgus 2r PET system (SEDECAL, Madrid, Spain) or 7T PETMR Inline (Bruker, Rheinstetten, Germany; energy window, 350-650 keV; timing window, 6 ns). Images were acquired every 10 s for 12 images, 60 s for three images, 300 s for three images, or 600 s for […]. The anatomical structure of the brain was imaged using T2 MRI. The MRI sequences included 0.5 mm thick T2 Turbo RARE high-resolution images (TR = 3000 ms, TE, 46 ms, matrix, 512 × 256, average, 40, slice number, 30, field of view, 20 × 10 mm).
After determining the optimal imaging time point for [^18F]FBAT, we performed a blocking study using a selective iNOS inhibitor to assess the specificity of the tracer for iNOS. Separate 7T PET/MR studies with [^18F]FBAT were performed for mice (n = 6) administered a bolus of aminoguanidine (50 mg/kg i.p.) 30 min prior to administration of [^18F]FBAT. The time course of [^18F]FBAT radioactivity in the brain after administration of the iNOS inhibitor was assessed and compared to that of the mice in the LPS 3 h group.
Images were reconstructed by the Fourier rebinning algorithm and two-dimensional filtered back projection using a ramp filter with a cutoff at Nyquist. The regional radioactivity concentration (kBq/cc) of [^18F]FBAT was estimated from the mean pixel values within the region of interest (ROI) corresponding to MR images of various organs and regions of the brain. ROI for carotid artery, heart muscle, lung, liver, spleen, and kidney were defined and time activity curves (TACs) generated. TACs for whole brain, cortex, cerebellum, and brainstem were also determined as described above.
The concentration of radioactivity (kBq/cc, μCi/cc) was converted to standardized uptake value (SUV), and the mean and standard deviation (SD) of radiotracer accumulation values were calculated for different organs and regions of the brain. Data were analyzed with PMOD 4.0 software (PMOD Technologies Ltd., Zurich, Switzerland).

NC1=NC2(CCN(C(=O)c3ccc(F)cc3)CC2)Nc2c(F)ccc(F)c21 [FBAT, (4′-amino-5′,8′-difluoro-1′H-spiro[piperidine-4,2′-quinazolin]-1-yl)(4-fluorophenyl)methanone]
logP [1]: 1.4 ± 0.27

COC(=O)[C@@H](N)CCCN=C(N)N[N+](=O)[O-] [[^11C]L-NAME, N-omega-nitro-L-arginine [^11C]methyl ester]
fraction of radioactivity present as [^11C]methanol (metabolite) [2]: 65%
IC50 ([3]; read-out: iNOS IC50): 20 µM

NC1=NC(c2ccc(F)cc2)Cc2cccc(F)c21 (stereo not drawn) [FFDI, 8-fluoro-3-(4-fluorophenyl)-3,4-dihydro-1-isoquino-linamine]
selectivity for iNOS vs. nNOS [4]: 100 fold
selectivity for iNOS vs. eNOS [5]: ~ 1000 fold
IC50 ([3]; read-out: IC50 (affinity for iNOS)): 0.16 µM

N=C(N)SCC[18F] [[^18F]FEITU, S-(2-[^18F]fluoroethyl)isothiourea]
selectivity vs. eNOS [5]: 9 fold
IC50 ([3]; read-out: iNOS IC50): 0.14 µM

CSC(=N)N [[^11C]MITU, S-[^11C]methylisothiourea]
IC50 ([3]; read-out: iNOS IC50): 3 µM

[11CH3]SC(=N)N [[^11C]MITU, S-[^11C]methylisothiourea]
selectivity vs. eNOS [5]: 2.3 fold

Cc1cc(N)nc(CC(C)F)c1 (stereo not drawn) [[^18F]9, [^18F]6-(2-fluoropropyl)-4-methyl-pyridin-2-amine]
parent fraction of activity in the blood [6]: 40.3%

N=C(N)NN [aminoguanidine, reference compound]
effect on LPS-induced NO production [7]: completely abolished
effect on LPS-induced iNOS immunoactivity, brainstem [8]: significantly reduced
effect on LPS-induced iNOS immunoreactivity, cortex [8]: significantly reduced
effect on LPS-induced [^18F]FBAT accumulation in BV2 cells [9]: inhibited
effect on LPS-induced [^18F]FBAT accumulation in BV2 cells ([9]; listed as AMG): significantly reduced
effect on [^18F]FBAT accumulation (SUV, AUC, Vt) in brain of LPS-induced mice [10]: significantly decreased
effect on [^18F]FBAT accumulation (SUV, AUC, Vt) in brain of LPS-induced mice ([10]; listed as Aminoguanidine): significantly reduced
